This assay deals with USP9X (Homo sapiens, UniProt Q93008). In words: Biochemical Assay for USP9X Inhibition (Ub-Rh110 fluorescence). Particulars: Biochemical Assay of Example 1, 25 nM Ub-Rh110, 30 min preincubation, Table 23 additional compounds. Here is the method: Biochemical Assay for USP9X Inhibition
Concentration and incubation times were optimized for the maximal signal-to-background while maintaining initial velocity conditions at a fixed substrate concentration (<<Km). […] To assay plates (pre-stamped with compound) was added 3 μL 2× Enzyme. The enzyme was preincubated for 30 minutes and then treated with 3 μL of 2× Substrate. […] The slope (best fit linear regression) of the five reads was used to normalize for inhibition. For all assays, data are reported as percent inhibition compared with control wells based on the following equation: […], wherein FLU is measured Fluorescence, AveLow is average Fluorescence of no enzyme control (n=64), and AveHigh is average Fluorescence of DMSO control (n=64). IC50 values are determined by curve fitting of the standard 4 parameter logistic fitting algorithm included in the Activity Base software package: IDBS XE Designer Model205. Data are fitted using the Levenburg Marquardt algorithm.

Sequence of USP9X (Q93008 whole entry, species assumed): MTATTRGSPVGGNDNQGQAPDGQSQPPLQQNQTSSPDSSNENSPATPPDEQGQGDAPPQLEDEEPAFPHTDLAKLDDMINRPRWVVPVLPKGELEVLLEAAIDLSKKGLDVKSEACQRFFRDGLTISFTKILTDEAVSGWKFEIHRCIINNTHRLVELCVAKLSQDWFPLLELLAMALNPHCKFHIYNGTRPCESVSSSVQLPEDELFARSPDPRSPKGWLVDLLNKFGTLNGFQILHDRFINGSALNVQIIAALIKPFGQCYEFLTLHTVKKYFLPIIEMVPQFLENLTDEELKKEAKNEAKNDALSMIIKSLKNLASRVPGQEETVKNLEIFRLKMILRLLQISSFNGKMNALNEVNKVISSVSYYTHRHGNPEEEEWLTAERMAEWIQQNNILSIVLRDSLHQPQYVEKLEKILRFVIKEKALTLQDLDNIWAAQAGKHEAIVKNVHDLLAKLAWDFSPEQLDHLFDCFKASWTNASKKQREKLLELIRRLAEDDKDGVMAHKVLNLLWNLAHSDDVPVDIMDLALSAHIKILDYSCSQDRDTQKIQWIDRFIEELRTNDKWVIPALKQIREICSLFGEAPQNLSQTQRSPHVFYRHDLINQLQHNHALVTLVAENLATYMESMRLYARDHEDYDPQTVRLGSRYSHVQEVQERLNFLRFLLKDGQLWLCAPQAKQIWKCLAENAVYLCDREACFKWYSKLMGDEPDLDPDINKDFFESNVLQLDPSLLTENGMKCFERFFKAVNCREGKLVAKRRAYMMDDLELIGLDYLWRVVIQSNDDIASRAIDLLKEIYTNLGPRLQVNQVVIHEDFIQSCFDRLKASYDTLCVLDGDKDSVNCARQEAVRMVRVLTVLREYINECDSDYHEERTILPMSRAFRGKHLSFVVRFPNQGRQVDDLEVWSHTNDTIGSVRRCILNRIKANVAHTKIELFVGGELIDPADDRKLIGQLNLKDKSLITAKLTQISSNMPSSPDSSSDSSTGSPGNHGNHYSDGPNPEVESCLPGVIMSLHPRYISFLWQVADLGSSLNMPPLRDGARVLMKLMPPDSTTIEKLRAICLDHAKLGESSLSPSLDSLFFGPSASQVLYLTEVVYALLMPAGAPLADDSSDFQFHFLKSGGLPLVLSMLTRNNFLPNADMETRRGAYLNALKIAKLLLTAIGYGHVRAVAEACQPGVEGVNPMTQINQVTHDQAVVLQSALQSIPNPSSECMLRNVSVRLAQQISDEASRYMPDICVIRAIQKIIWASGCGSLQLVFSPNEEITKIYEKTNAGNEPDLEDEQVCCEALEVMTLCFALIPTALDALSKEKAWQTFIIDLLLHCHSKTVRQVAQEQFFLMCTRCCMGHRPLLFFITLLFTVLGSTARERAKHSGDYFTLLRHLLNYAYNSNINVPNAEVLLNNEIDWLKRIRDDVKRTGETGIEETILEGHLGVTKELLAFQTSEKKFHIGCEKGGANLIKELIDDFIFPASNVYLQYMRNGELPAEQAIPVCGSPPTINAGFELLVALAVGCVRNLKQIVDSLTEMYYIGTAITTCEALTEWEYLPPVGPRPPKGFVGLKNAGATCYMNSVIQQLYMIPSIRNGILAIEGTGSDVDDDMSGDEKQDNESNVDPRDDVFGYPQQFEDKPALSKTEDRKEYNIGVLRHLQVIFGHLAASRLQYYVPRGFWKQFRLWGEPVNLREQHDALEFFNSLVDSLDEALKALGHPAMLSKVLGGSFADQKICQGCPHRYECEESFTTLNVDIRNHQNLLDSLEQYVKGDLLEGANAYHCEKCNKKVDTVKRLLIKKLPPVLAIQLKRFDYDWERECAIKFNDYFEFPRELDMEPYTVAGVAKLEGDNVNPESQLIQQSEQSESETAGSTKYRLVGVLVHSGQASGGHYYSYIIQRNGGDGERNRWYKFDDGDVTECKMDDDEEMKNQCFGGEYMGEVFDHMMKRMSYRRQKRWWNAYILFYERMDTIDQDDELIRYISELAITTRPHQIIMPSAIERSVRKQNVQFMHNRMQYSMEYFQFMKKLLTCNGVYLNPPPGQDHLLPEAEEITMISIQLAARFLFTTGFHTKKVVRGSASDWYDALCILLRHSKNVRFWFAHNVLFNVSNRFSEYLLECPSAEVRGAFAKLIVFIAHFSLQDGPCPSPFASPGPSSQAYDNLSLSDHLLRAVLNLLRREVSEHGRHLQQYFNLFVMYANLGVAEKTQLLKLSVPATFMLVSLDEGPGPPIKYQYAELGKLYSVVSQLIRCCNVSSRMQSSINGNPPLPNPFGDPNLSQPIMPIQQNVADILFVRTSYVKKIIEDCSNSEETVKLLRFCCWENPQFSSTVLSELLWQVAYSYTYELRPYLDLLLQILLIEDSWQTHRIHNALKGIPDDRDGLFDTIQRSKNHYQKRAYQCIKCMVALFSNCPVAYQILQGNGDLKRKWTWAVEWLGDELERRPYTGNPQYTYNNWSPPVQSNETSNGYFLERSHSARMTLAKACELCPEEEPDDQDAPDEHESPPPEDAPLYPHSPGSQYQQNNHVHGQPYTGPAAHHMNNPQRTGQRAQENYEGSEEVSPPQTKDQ

In the case of `O=C([C@H](CO)c1ccccc1)N1CC2=C(C1)CN(S(=O)(=O)c1cnc3c(c1)OCCO3)C2` [Example C-8], the half-inhibitory concentration (IC50) lay within 2000 to 25000 nM.

The molecule `O=C([C@@H](CO)c1ccccc1)N1CC2=C(C1)CN(S(=O)(=O)c1cnc3c(c1)OCCO3)C2` [Example C-7] came in with an IC50 of 200 to 2000 nM.

What is called IC50 is the point on the concentration scale where inhibition reaches its midpoint. Low readings indicate greater potency, high ones weaker potency.

The record behind these values is patent publication US20230065368A1, “INHIBITING UBIQUITIN SPECIFIC PEPTIDASE 9X” (FORMA Therapeutics, Inc., priority 2018, published 2023).
